How the values were obtained:
[1] = test system: COX-1 and COX-2 protein in TR146 cells; assay: Western blot for COX-1 and COX-2 after inflammation study; assay type: cell-based, human; conditions: 48 h treatment
[2] = test system: TR146 oral mucosa in vitro model; assay: High-throughput (96.96) qPCR chip, mRNA expression after inflammation studies; assay type: cell-based, human; conditions: 48 h, normalised to control; mean ± SD
Procedure: ThinCerts® were seeded with cells as described above. […] Three days before the experiments, cell layers and blanks were washed twice on the basolateral compartment with 900 µL cultivation media (DMEM supplemented with 10% Fetal Calf Serum and 1% Penicillin/Streptomycin) to remove anti-inflammatory hydrocortisone residues (a component of media supplement HKGS) and were further cultivated in cultivation media.
Prior to treating cells with prepared DMEM solutions, TEER was measured in cultivation media DMEM supplemented with 1% Penicillin/Streptomycin and 10% Fetal Calf Serum. Subsequently, cell layers and blanks were washed with DMEM (without supplements) twice on the apical and basolateral compartment, followed by TEER measurements in DMEM. Media of cells were replaced with previously prepared DMEM solutions. Control media was applied on the blanks. […] Subsequently, 10 µM carboxyfluorescein was added to the apical DMEM solutions and incubated in the incubator at 37 °C for 2 h. Media were immediately collected and measured for the RFU content using the EnSpire as described above. Afterwards, media were stored at −20 °C until further usage. Two cell-grown ThinCerts^TM of each treatment were pooled as one sample with 350 µL lysis buffer supplemented with 1% ß-mercaptoethanol and stored at −80 °C for RNA isolation.
In short, RNA samples collected at the 48-hour timepoint of the inflammation studies and generated by pooling two cell-grown inserts were tested as duplicates on the expression of 95 markers and 1 negative control (H2O). The mRNA samples were amplified with three different primer pools containing 54 primers (PPIA, ACTB, GAPDH, B2M, CLDN1, CLDN2, CLDN3, CLDN4, CLDN5, CLDN6, CLDN7, CLDN8, CLDN9, CLDN10tva, […]
MARVELD2, ZO-1, ZO-2, ZO-3, SLC2A1, SLC7A1, SLC7A5, SLC16A1, ABCB1, ABCC1, ABCC2, ABCC3, ABCC4, ABCC5, ABCG2, INSR, LRP1, TFRC, VEGF-A, CDH5, VWF), 32 primers (CK1, CK4, […]
Quality control of generated data excluded Ct measured outside of the marker’s melting temperature ± 1.5 °C. To calculate the relative expression for each marker, the relative quantitative value was first calculated by subtracting the mean Ct values of control samples from the Ct values of treated samples and potentiating the resulting ΔCt by the power of 2 (=2ΔCt). The geometric mean of housekeeping genes […]
the relative quantitative value of each marker was divided by the calculated geometric mean of housekeeping genes of the respective sample. Subsequent expression values of treated samples were […]
Tested RNA samples were collected after three independent experiments with 4 treatment groups (Control, INF, INF+Ibu, Ibu) per experiment (N=12). Statistical analysis was performed as two-way ANOVA with post hoc Holm–Sidak test with *p<0.05, **p<0.01, ***p<0.001 and […]

With `CC(C)Cc1ccc(C(C)C(=O)O)cc1` (stereo not shown) [ibuprofen] the COX-2 protein expression [1] was “no up-regulation of COX-2”, the “ABCB1 mRNA expression” value [2] was 1.01± 0.04 n-fold and the “ABCC1 mRNA expression” value [2] was 1.26± 0.46 n-fold. The “ABCC2 mRNA expression” value [2] was 0.7± 0.65 n-fold, the “ABCC3 mRNA expression” value [2] was 0.97± 1.21 n-fold and the “ABCC4 mRNA expression” value [2] was 1.46± 0.5 n-fold. The “ABCC5 mRNA expression” value [2] was 0.69± 0.34 n-fold, the “ABCG2 mRNA expression” value [2] was 0.87± 1.23 n-fold and the “AMY mRNA expression” value [2] was 0.38± 0.43 n-fold. For the same compound, the “AQP1 mRNA expression” value [2] was 0.34± 0.19 n-fold, the “AQP3 mRNA expression” value [2] was 0.76± 0.67 n-fold and the “AQP5 mRNA expression” value [2] was 1.57± 1.16 n-fold. For the same compound, the “AQP9 mRNA expression” value [2] was 0.93± 0.04 n-fold, the “AQP10 mRNA expression” value [2] was 1.38± 0.72 n-fold and the “AQP11 mRNA expression” value [2] was 0.66 ± 0.07 n-fold. For the same compound, the “CDH1 mRNA expression” value [2] was 0.93± 0.62 n-fold, the “CK1 mRNA expression” value [2] was 11.98± 16.81 n-fold and the “CK4 mRNA expression” value [2] was 1.53± 1.73 n-fold. For the same compound, the “CK5 mRNA expression” value [2] was 0.27± 0.28 n-fold, the “CK7 mRNA expression” value [2] was 3.07± 2.11 n-fold and the “CK8 mRNA expression” value [2] was 0.92± 0.68 n-fold. For the same compound, the “CK10 mRNA expression” value [2] was 1.63± 2.38 n-fold, the “CK13tv1 mRNA expression” value [2] was 1.34± 0.93 n-fold and the “CK14 mRNA expression” value [2] was 1.53± 0.93 n-fold. For the same compound, the “CK18 mRNA expression” value [2] was 0.79± 0.85 n-fold, the “CK19 mRNA expression” value [2] was 1.53± 0.26 n-fold and the “CLDN1 mRNA expression” value [2] was 0.52± 0.71 n-fold. For the same compound, the “CLDN2 mRNA expression” value [2] was 5.02 n-fold, the “CLDN3 mRNA expression” value [2] was 1.95 n-fold and the “CLDN4 mRNA expression” value [2] was 0.74± 1.1 n-fold. For the same compound, the “CLDN5 mRNA expression” value [2] was 7.17± 10.76 n-fold, the “CLDN6 mRNA expression” value [2] was 1.83± 0.78 n-fold and the “CLDN7 mRNA expression” value [2] was 0.51± 0.72 n-fold. The “CLDN8 mRNA expression” value [2] was 0.49± 0.46 n-fold, the “CLDN9 mRNA expression” value [2] was 1.07± 1.46 n-fold and the “CLDN10tva mRNA expression” value [2] was 1.49± 2.21 n-fold. The “CLDN11 mRNA expression” value [2] was 0.6± 0.1 n-fold, the “CLDN12tv1 mRNA expression” value [2] was 0.73± 0.3 n-fold and the “CLDN12tv2 mRNA expression” value [2] was 0.47± 0.35 n-fold. The “CLDN12tv3 mRNA expression” value [2] was 0.79± 0.25 n-fold, the “CLDN14 mRNA expression” value [2] was 1.51 n-fold and the “CLDN15 mRNA expression” value [2] was 0.98± 0.96 n-fold. The “CLDN16 mRNA expression” value [2] was 1.79± 1.1 n-fold, the “CLDN17 mRNA expression” value [2] was 1.66± 1.15 n-fold and the “CLDN18tv2a mRNA expression” value [2] was 6.08± 8.62 n-fold. For the same compound, the “CLDN21 mRNA expression” value [2] was 1.29 n-fold, the “CLDN22 mRNA expression” value [2] was 0.4± 0.53 n-fold and the “CLDN24 mRNA expression” value [2] was 0.62 n-fold. For the same compound, the “CLDN25tv1-4 mRNA expression” value [2] was 0.65± 0.77 n-fold, the “CLDN25tv7 mRNA expression” value [2] was 1.34± 0.38 n-fold and the “CLDN27 mRNA expression” value [2] was 0.26 n-fold. For the same compound, the “DSG3 mRNA expression” value [2] was 0.83± 0.85 n-fold, the “INSR mRNA expression” value [2] was 0.52± 0.39 n-fold and the “JAM1 mRNA expression” value [2] was 0.5± 0.67 n-fold. The “JAM2 mRNA expression” value [2] was 0.55 n-fold, the “LOR mRNA expression” value [2] was 2.69± 2.89 n-fold and the “LRP1 mRNA expression” value [2] was 0.68± 0.36 n-fold. For the same compound, the “MARVELD2 mRNA expression” value [2] was 2.92± 1.97 n-fold, the “MFSD2A mRNA expression” value [2] was 0.85± 0.6 n-fold and the “MUC1A mRNA expression” value [2] was 0.53± 0.42 n-fold. The “MUC1B mRNA expression” value [2] was 0.81± 0.36 n-fold, the “MUC3A mRNA expression” value [2] was 2.34± 2.52 n-fold and the “MUC5AC mRNA expression” value [2] was 0.76± 0.17 n-fold. For the same compound, the “MUC15tv2 mRNA expression” value [2] was 0.46± 0.21 n-fold, the “MUC18 mRNA expression” value [2] was 0.89± 0.56 n-fold and the “MUC20 mRNA expression” value [2] was 1.43± 0.61 n-fold. The “OCLN mRNA expression” value [2] was 1.16± 1.05 n-fold, the “PECAM1 mRNA expression” value [2] was 0.77 n-fold and the “SLC2A1 mRNA expression” value [2] was 0.4± 0.26 n-fold. For the same compound, the “SLC7A1 mRNA expression” value [2] was 0.54± 0.49 n-fold, the “SLC7A5 mRNA expression” value [2] was 0.56± 0.91 n-fold and the “SLC16A1 mRNA expression” value [2] was 0.32± 0.48 n-fold. The “TFRC mRNA expression” value [2] was 0.79± 0.87 n-fold, the “VEGF-A mRNA expression” value [2] was 0.5± 0.27 n-fold and the “VIM mRNA expression” value [2] was 0.56± 0.52 n-fold. The “VWF mRNA expression” value [2] was 1.28 n-fold, the “ZO-1 mRNA expression” value [2] was 0.91± 0.81 n-fold and the “ZO-2 mRNA expression” value [2] was 1.26± 0.5 n-fold. For the same compound, the “ZO-3 mRNA expression” value [2] was 0.51± 0.84 n-fold.

From PMC11054638, “Transport of Non-Steroidal Anti-Inflammatory Drugs across an Oral Mucosa Epithelium In Vitro Model” (Pharmaceutics, 2024)
